Source: the supplement of paper PMC10307832

What was measured:
Assay in all cases: relative viability (nuclei count vs DMSO), 5 days (fraction); higher = more cells survive
[1] = compound: C1CNCCC1C2=CC(=NN2)C3=CC=NC=C3 + CC(=O)Nc1cccc(-n2c(=O)n(C3CC3)c(=O)c3c(Nc4ccc(I)cc4F)n(C)c(=O)c(C)c32)c1 [Trametinib] (partner 0.02 µM)
Outline: (§1)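 Relative viability was taken as the ratio of nuclei in treated wells to nuclei in vehicle wells. Lung cancer cell lines in 1536-well plates received compounds by pin tool one day after seeding, either one drug alone or a fixed anchor-drug dose plus five library-drug doses (not always all listed) in √10 steps. Nuclei were counted on 4× images after 5 days of treatment, and values are medians of duplicate plates.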

[2] = compound: C1CNCCC1C2=CC(=NN2)C3=CC=NC=C3 + COc1cccc2cc(-c3nc([C@H]4CC[C@H](C(=O)O)CC4)n4ncnc(N)c34)[nH]c12 [OSI-027] (partner 0.5 µM)
Outline: as §1

Tanzisertib + Linsitinib = compound: O[C@H]1CC[C@H](Nc2ncc3nc(Nc4c(F)cc(F)cc4F)n([C@H]4CCOC4)c3n2)CC1 [Tanzisertib] + C[C@]1(O)C[C@@H](c2nc(-c3ccc4ccc(-c5ccccc5)nc4c3)c3c(N)nccn32)C1 [Linsitinib] (partner 1 µM)
Outline: as §1

Tanzisertib + Tozasertib = compound: O[C@H]1CC[C@H](Nc2ncc3nc(Nc4c(F)cc(F)cc4F)n([C@H]4CCOC4)c3n2)CC1 [Tanzisertib] + Cc1cc(Nc2cc(N3CCN(C)CC3)nc(Sc3ccc(NC(=O)C4CC4)cc3)n2)n[nH]1 [Tozasertib] (partner 0.1 µM)
Outline: as §1

NCI-H1944
relative viability ([1]; first compound 0.08 µM): 0.333
relative viability ([1]; first compound 0.8 µM): 0.376
relative viability ([1]; first compound 2.53 µM): 0.389
relative viability ([1]; first compound 8 µM): 0.411
relative viability ([2]; first compound 0.08 µM): 0.41
relative viability ([2]; first compound 0.8 µM): 0.413
relative viability ([2]; first compound 2.53 µM): 0.546
relative viability ([2]; first compound 8 µM): 0.423
relative viability (Tanzisertib + Linsitinib; first compound 0.08 µM): 1.25
relative viability (Tanzisertib + Linsitinib; first compound 0.253 µM): 1.18
relative viability (Tanzisertib + Linsitinib; first compound 0.8 µM): 1.12
relative viability (Tanzisertib + Linsitinib; first compound 2.53 µM): 1.12
relative viability (Tanzisertib + Linsitinib; first compound 8 µM): 0.878
relative viability (Tanzisertib + Tozasertib; first compound 0.08 µM): 0.289
relative viability (Tanzisertib + Tozasertib; first compound 0.253 µM): 0.25
relative viability (Tanzisertib + Tozasertib; first compound 0.8 µM): 0.237
relative viability (Tanzisertib + Tozasertib; first compound 2.53 µM): 0.223
relative viability (Tanzisertib + Tozasertib; first compound 8 µM): 0.242

NCI-H1975
relative viability ([1]; first compound 0.08 µM): 0.342
relative viability ([1]; first compound 0.8 µM): 0.249
relative viability ([1]; first compound 2.53 µM): 0.356
relative viability ([1]; first compound 8 µM): 0.394
relative viability ([2]; first compound 0.08 µM): 0.703
relative viability ([2]; first compound 0.8 µM): 0.778
relative viability ([2]; first compound 2.53 µM): 0.774
relative viability ([2]; first compound 8 µM): 0.777
relative viability (Tanzisertib + Linsitinib; first compound 0.08 µM): 1.1
relative viability (Tanzisertib + Linsitinib; first compound 0.253 µM): 0.979
relative viability (Tanzisertib + Linsitinib; first compound 0.8 µM): 0.993
relative viability (Tanzisertib + Linsitinib; first compound 2.53 µM): 1.07
relative viability (Tanzisertib + Linsitinib; first compound 8 µM): 0.873
relative viability (Tanzisertib + Tozasertib; first compound 0.08 µM): 0.845
relative viability (Tanzisertib + Tozasertib; first compound 0.253 µM): 0.762
relative viability (Tanzisertib + Tozasertib; first compound 0.8 µM): 0.838
relative viability (Tanzisertib + Tozasertib; first compound 2.53 µM): 0.668
relative viability (Tanzisertib + Tozasertib; first compound 8 µM): 0.458

NCI-H1993
relative viability ([1]; first compound 0.08 µM): 0.512
relative viability ([1]; first compound 0.8 µM): 0.597
relative viability ([1]; first compound 2.53 µM): 0.509
relative viability ([1]; first compound 8 µM): 0.536
relative viability ([2]; first compound 0.08 µM): 0.581
relative viability ([2]; first compound 0.8 µM): 0.533
relative viability ([2]; first compound 2.53 µM): 0.529
relative viability ([2]; first compound 8 µM): 0.578
relative viability (Tanzisertib + Linsitinib; first compound 0.08 µM): 0.759
relative viability (Tanzisertib + Linsitinib; first compound 0.253 µM): 0.681
relative viability (Tanzisertib + Linsitinib; first compound 0.8 µM): 0.754
relative viability (Tanzisertib + Linsitinib; first compound 2.53 µM): 0.768
relative viability (Tanzisertib + Linsitinib; first compound 8 µM): 0.677
relative viability (Tanzisertib + Tozasertib; first compound 0.08 µM): 0.614
relative viability (Tanzisertib + Tozasertib; first compound 0.253 µM): 0.593
relative viability (Tanzisertib + Tozasertib; first compound 0.8 µM): 0.592
relative viability (Tanzisertib + Tozasertib; first compound 2.53 µM): 0.617
relative viability (Tanzisertib + Tozasertib; first compound 8 µM): 0.548

NCI-H2009
relative viability ([1]; first compound 0.08 µM): 0.248
relative viability ([1]; first compound 0.8 µM): 0.257
relative viability ([1]; first compound 2.53 µM): 0.376
relative viability ([1]; first compound 8 µM): 0.298
relative viability ([2]; first compound 0.08 µM): 0.761
relative viability ([2]; first compound 0.8 µM): 0.699
relative viability ([2]; first compound 2.53 µM): 0.749
relative viability ([2]; first compound 8 µM): 0.725
relative viability (Tanzisertib + Linsitinib; first compound 0.08 µM): 1.22
relative viability (Tanzisertib + Linsitinib; first compound 0.253 µM): 1.17
relative viability (Tanzisertib + Linsitinib; first compound 0.8 µM): 1.17
relative viability (Tanzisertib + Linsitinib; first compound 2.53 µM): 1.26
relative viability (Tanzisertib + Linsitinib; first compound 8 µM): 1.21
relative viability (Tanzisertib + Tozasertib; first compound 0.08 µM): 0.804
relative viability (Tanzisertib + Tozasertib; first compound 0.253 µM): 0.72
relative viability (Tanzisertib + Tozasertib; first compound 0.8 µM): 0.775
relative viability (Tanzisertib + Tozasertib; first compound 2.53 µM): 0.754
relative viability (Tanzisertib + Tozasertib; first compound 8 µM): 0.661

NCI-H2023
relative viability ([1]; first compound 0.08 µM): 0.418
relative viability ([1]; first compound 0.8 µM): 0.627
relative viability ([1]; first compound 2.53 µM): 0.645
relative viability ([1]; first compound 8 µM): 0.494
relative viability ([2]; first compound 0.08 µM): 0.347
relative viability ([2]; first compound 0.8 µM): 0.48
relative viability ([2]; first compound 2.53 µM): 0.457
relative viability ([2]; first compound 8 µM): 0.503
relative viability (Tanzisertib + Linsitinib; first compound 0.08 µM): 0.702
relative viability (Tanzisertib + Linsitinib; first compound 0.253 µM): 0.589
relative viability (Tanzisertib + Linsitinib; first compound 0.8 µM): 0.759
relative viability (Tanzisertib + Linsitinib; first compound 2.53 µM): 0.621
relative viability (Tanzisertib + Linsitinib; first compound 8 µM): 0.56
relative viability (Tanzisertib + Tozasertib; first compound 0.08 µM): 0.479
relative viability (Tanzisertib + Tozasertib; first compound 0.253 µM): 0.431
relative viability (Tanzisertib + Tozasertib; first compound 0.8 µM): 0.409
relative viability (Tanzisertib + Tozasertib; first compound 2.53 µM): 0.321
relative viability (Tanzisertib + Tozasertib; first compound 8 µM): 0.2

NCI-H2085
relative viability ([1]; first compound 0.08 µM): 0.623
relative viability ([1]; first compound 2.53 µM): 0.52
relative viability ([1]; first compound 8 µM): 0.71
relative viability ([2]; first compound 0.08 µM): 0.818
relative viability ([2]; first compound 0.8 µM): 0.515
relative viability ([2]; first compound 2.53 µM): 0.682
relative viability ([2]; first compound 8 µM): 0.935
relative viability (Tanzisertib + Linsitinib; first compound 0.08 µM): 1.03
relative viability (Tanzisertib + Linsitinib; first compound 0.253 µM): 0.808
relative viability (Tanzisertib + Linsitinib; first compound 0.8 µM): 0.905
relative viability (Tanzisertib + Linsitinib; first compound 2.53 µM): 0.826
relative viability (Tanzisertib + Linsitinib; first compound 8 µM): 0.83
relative viability (Tanzisertib + Tozasertib; first compound 0.08 µM): 0.9
relative viability (Tanzisertib + Tozasertib; first compound 0.253 µM): 0.822
relative viability (Tanzisertib + Tozasertib; first compound 0.8 µM): 0.914
relative viability (Tanzisertib + Tozasertib; first compound 2.53 µM): 0.644
relative viability (Tanzisertib + Tozasertib; first compound 8 µM): 0.59

NCI-H2087
relative viability ([1]; first compound 0.08 µM): 0.216
relative viability ([1]; first compound 0.8 µM): 0.226
relative viability ([1]; first compound 2.53 µM): 0.181
relative viability ([1]; first compound 8 µM): 0.291
relative viability ([2]; first compound 0.08 µM): 0.471
relative viability ([2]; first compound 0.8 µM): 0.616
relative viability ([2]; first compound 2.53 µM): 0.619
relative viability ([2]; first compound 8 µM): 0.573
relative viability (Tanzisertib + Linsitinib; first compound 0.08 µM): 1.12
relative viability (Tanzisertib + Linsitinib; first compound 0.253 µM): 1.07
relative viability (Tanzisertib + Linsitinib; first compound 0.8 µM): 0.98
relative viability (Tanzisertib + Linsitinib; first compound 2.53 µM): 1.24
relative viability (Tanzisertib + Linsitinib; first compound 8 µM): 0.957
relative viability (Tanzisertib + Tozasertib; first compound 0.08 µM): 0.238
relative viability (Tanzisertib + Tozasertib; first compound 0.253 µM): 0.287
relative viability (Tanzisertib + Tozasertib; first compound 0.8 µM): 0.277
relative viability (Tanzisertib + Tozasertib; first compound 2.53 µM): 0.209
relative viability (Tanzisertib + Tozasertib; first compound 8 µM): 0.202

NCI-H2126
relative viability ([1]; first compound 0.08 µM): 0.582
relative viability ([1]; first compound 0.8 µM): 0.564
relative viability ([1]; first compound 2.53 µM): 0.543
relative viability ([1]; first compound 8 µM): 0.564
relative viability ([2]; first compound 0.08 µM): 0.724
relative viability ([2]; first compound 0.8 µM): 0.591
relative viability ([2]; first compound 2.53 µM): 0.725
relative viability ([2]; first compound 8 µM): 0.698
relative viability (Tanzisertib + Linsitinib; first compound 0.08 µM): 0.814
relative viability (Tanzisertib + Linsitinib; first compound 0.253 µM): 0.77
relative viability (Tanzisertib + Linsitinib; first compound 0.8 µM): 0.712
relative viability (Tanzisertib + Linsitinib; first compound 2.53 µM): 0.726
relative viability (Tanzisertib + Linsitinib; first compound 8 µM): 0.736
relative viability (Tanzisertib + Tozasertib; first compound 0.08 µM): 0.91
relative viability (Tanzisertib + Tozasertib; first compound 0.253 µM): 0.872
relative viability (Tanzisertib + Tozasertib; first compound 0.8 µM): 0.85
relative viability (Tanzisertib + Tozasertib; first compound 2.53 µM): 0.813
relative viability (Tanzisertib + Tozasertib; first compound 8 µM): 0.859

NCI-H2228
relative viability ([1]; first compound 0.08 µM): 0.56
relative viability ([1]; first compound 0.8 µM): 0.37
relative viability ([1]; first compound 2.53 µM): 0.696
relative viability ([1]; first compound 8 µM): 0.7
relative viability ([2]; first compound 0.08 µM): 0.61
relative viability ([2]; first compound 0.8 µM): 0.653
relative viability ([2]; first compound 2.53 µM): 0.649
relative viability ([2]; first compound 8 µM): 0.689
relative viability (Tanzisertib + Linsitinib; first compound 0.08 µM): 0.877
relative viability (Tanzisertib + Linsitinib; first compound 0.253 µM): 0.691
relative viability (Tanzisertib + Linsitinib; first compound 0.8 µM): 0.573
relative viability (Tanzisertib + Linsitinib; first compound 2.53 µM): 0.553
relative viability (Tanzisertib + Linsitinib; first compound 8 µM): 0.509
relative viability (Tanzisertib + Tozasertib; first compound 0.08 µM): 0.333
relative viability (Tanzisertib + Tozasertib; first compound 0.253 µM): 0.385
relative viability (Tanzisertib + Tozasertib; first compound 0.8 µM): 0.241
relative viability (Tanzisertib + Tozasertib; first compound 2.53 µM): 0.254
relative viability (Tanzisertib + Tozasertib; first compound 8 µM): 0.238
